Measurements as given in PubChem BioAssay AID2060893 (Molecular Pharmacology Branch, DTP, NCI, 2025).
Values joined by “and” are separate entries in the source; they are usually repeats but may differ in a detail not shown here. Identical values can stand only once. Values belong to the compound of their own block, whether it stands above or below them.

Test system: K86415-001-R-J1-PDC complex spheroids, viability
Assay: Anticancer human tumor K86415-001-R-J1-PDC patient-derived lung adenocarcinoma cell line growth inhibition [RAS]
Settings: for viability, T/C: stronger effect = lower value
Source text: RAS pathway inhibitors in Combinations in Complex Spheroids
A high-throughput screen of multi-cell type tumor spheroids was designed to identify active combinations of RAS pathway inhibitors and targeted small molecules. Complex spheroids include a stromal component modeled by human endothelial cells (HUVEC) and fibroblasts modeled by human mesenchymal stem cells (MSCs). The concentration ranges selected for each drug and investigational agent were based upon clinically achievable concentrations if the clinical Cmax of the agent was known.
Compounds. The drugs and investigational agents: abemaciclib (NSC768073), cobimetinib (NSC768068), divarasib (GDC6063, NSC841802), docetaxel (NSC628503), GDC-1971 (RLY-1971, NSC841576), gemcitabine (NSC613327), inavolisib (NSC800729), ipatasertib (NSC767898), KB-0742 (NSC834161), MRTX-1133 (NSC836407), osimertinib (NSC779217), RMC-4630 (NSC839698), RMC-6236 (NSC851965), RMC-6291 (NSC852671), Ro-3306 (NSC812927), sapanisertib (NSC764658), SN-38 (NSC673596), staurosporine (NSC755774), SY5609 (NSC837396), and tovorafenib (DAY101, NSC766906), were obtained from the National Cancer Institute (NCI) Developmental Therapeutics Program Chemical Repository. The FDA-approved anticancer drug set is available from the NCI Developmental Therapeutics Program. […] The stock solutions were prepared in dimethyl sulfoxide (DMSO, Sigma-Aldrich, St. Louis, MO, cat. D2650) at 800-fold the tested concentration and stored at -70 degrees C prior to their use. All drugs and investigational agents were tested over a range starting from a high concentration at or near the clinical Cmax and decreasing in half-log increments. If the clinical Cmax for an agent had not been determined, the highest concentration tested was 10 microM.
Cell Culture. All cells were maintained in an incubator at 37 degrees C and 5% CO2 with 95% humidity. The PDC lines were cultured according to standard operating procedures established by the NCI PDMR. All PDCs were thawed and cultured in Matrigel-coated flasks prepared with a working solution of 1X Ham's F-12 nutrient mix, without supplementation (Invitrogen, Waltham, MA, cat. 11765054), 100 U/mL penicillin-streptomycin (Invitrogen, cat. 15140122), and 2.5% Matrigel (Corning Inc., Corning, NY, cat. 354248) for the first three passages. The 362531-283-R-J2-PDC and 782815-120-R-J1-PDC lines were cultured in 6C/Colon 1B media, which includes advanced DMEM/F-12 (Thermo Fisher Scientific, cat. 12634028), 10 mM HEPES (Thermo Fisher Scientific, cat. 15630080), 1X GlutaMAX supplement (Thermo Fisher Scientific, cat. 35050061), 0.1 mg/mL primocin (InvivoGen, San Diego, CA, cat. ant-pm-2), 10% defined fetal bovine serum, heat inactivated (HyClone Laboratories Inc., Logan, UT, cat. SH30070.03HI), 50% L-WRN conditioned media (ATCC, cat. CRL-3276), 1.25 mM N-Acetyl-L-cysteine (Sigma-Aldrich, cat. A9165), 10 mM nicotinamide (Sigma-Aldrich, cat. N0636), 1X B-27 supplement (Thermo Fisher Scientific, cat. 17504044), 1X N-2 supplement (Thermo Fisher Scientific, cat. 17502048), 50 ng/mL human EGF (Thermo Fisher Scientific, cat. PHG0311), and 10 microM Y-27632 dihydrochloride (Tocris Bioscience, cat. 1254). The K12877-001-R-J1-PDC line was cultured in 6I media, which includes all 6C/Colon 1B media plus 10 ng/mL human FGF-10 (PeproTech, cat. 100-26), 1 ng/mL human FGF-2 (PeproTech, cat. 100-18B), 1 µM prostaglandin E2 (Tocris Bioscience, cat. 2296), […] hydrocortisone (Sigma-Aldrich, cat. H4001), and […] bovine insulin (Sigma-Aldrich, cat. I6634). The K86415-001-R-J1-PDC line was cultured in 6D media, which includes all 6C/Colon 1B media components minus the L-WRN conditioned media. The 485176-168-R4-J1-PDC was cultured in PANC media, which includes all 6C/Colon 1B media plus 100 ng/mL human FGF-10 (PeproTech, cat. 100-26), 500 nM SB-431542 (Selleckchem, cat. S1067), and 10 nM gastrin (Tocris Bioscience, cat. 3006). […]
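Note: spheroids exposed to agents for seven days before readout.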

IC50 (curve of first compound, second compound 0.0316 µM): 300 nM | IC50 (curve of first compound, second compound 0.1 µM): > 300 nM | IC50 (curve of first compound, second compound 0.316 µM): 300 nM | IC50 (curve of first compound, second compound 1 µM): > 300 nM | IC50 (curve of first compound, second compound 3.16 µM): > 300 nM | IC50 (curve of first compound, second compound 10 µM): < 0.949 nM
SMILES: CC1(C)CCC(Nc2ncc(C(F)(F)F)c(-c3c[nH]c4c(P(C)(C)=O)c(C#N)ccc34)n2)CN1 (stereo not drawn) + C#Cc1c(F)ccc2cc(O)cc(-c3ncc4c(N5CC6CCC(C5)N6)nc(OCC56CCCN5CC(F)C6)nc4c3F)c12
viability, T/C (second compound 0.0316 µM, first compound 0.000949 µM): 103% | viability, T/C (second compound 0.0316 µM, first compound 0.003 µM): 131% | viability, T/C (second compound 0.0316 µM, first compound 0.00949 µM): 75.3% | viability, T/C (second compound 0.0316 µM, first compound 0.03 µM): 59.8% | viability, T/C (second compound 0.0316 µM, first compound 0.0949 µM): 56.6% | viability, T/C (second compound 0.0316 µM, first compound 0.3 µM): 55.5% | viability, T/C (second compound 0.1 µM, first compound 0.000949 µM): 103% | viability, T/C (second compound 0.1 µM, first compound 0.003 µM): 118% | viability, T/C (second compound 0.1 µM, first compound 0.00949 µM): 77.3% | viability, T/C (second compound 0.1 µM, first compound 0.03 µM): 62% | viability, T/C (second compound 0.1 µM, first compound 0.0949 µM): 57.4% | viability, T/C (second compound 0.1 µM, first compound 0.3 µM): 61% | viability, T/C (second compound 0.316 µM, first compound 0.000949 µM): 101% | viability, T/C (second compound 0.316 µM, first compound 0.003 µM): 119% | viability, T/C (second compound 0.316 µM, first compound 0.00949 µM): 78.3% | viability, T/C (second compound 0.316 µM, first compound 0.03 µM): 60.4% | viability, T/C (second compound 0.316 µM, first compound 0.0949 µM): 62.8% | viability, T/C (second compound 0.316 µM, first compound 0.3 µM): 61.9% | viability, T/C (second compound 1 µM, first compound 0.000949 µM): 78.5% | viability, T/C (second compound 1 µM, first compound 0.003 µM): 103% | viability, T/C (second compound 1 µM, first compound 0.00949 µM): 76.5% | viability, T/C (second compound 1 µM, first compound 0.03 µM): 57.4% | viability, T/C (second compound 1 µM, first compound 0.0949 µM): 60.6% | viability, T/C (second compound 1 µM, first compound 0.3 µM): 65.5% | viability, T/C (second compound 3.16 µM, first compound 0.000949 µM): 39.1% | viability, T/C (second compound 3.16 µM, first compound 0.003 µM): 64.3% | viability, T/C (second compound 3.16 µM, first compound 0.00949 µM): 60.5% | viability, T/C (second compound 3.16 µM, first compound 0.03 µM): 49.5% | viability, T/C (second compound 3.16 µM, first compound 0.0949 µM): 47.9% | viability, T/C (second compound 3.16 µM, first compound 0.3 µM): 55.8% | viability, T/C (second compound 10 µM, first compound 0.000949 µM): 19% | viability, T/C (second compound 10 µM, first compound 0.003 µM): 22% | viability, T/C (second compound 10 µM, first compound 0.00949 µM): 26.7% | viability, T/C (second compound 10 µM, first compound 0.03 µM): 29.1% | viability, T/C (second compound 10 µM, first compound 0.0949 µM): 33.6% | viability, T/C (second compound 10 µM, first compound 0.3 µM): 34.3%

IC50 (curve of compound): 5.04 µM [middle of 4 runs]
SMILES: CC1(O)CCCC1n1c(=O)c(C(F)F)cc2cnc(NC3CCN(S(C)(=O)=O)CC3)nc21 (stereo not drawn)
viability, T/C (compound 0.0316 µM): 83.8% and 84.3% and 80.5% (2×) | viability, T/C (compound 0.1 µM): 87.1% [middle of 4 runs] | viability, T/C (compound 0.316 µM): 65.7% [middle of 4 runs] | viability, T/C (compound 1 µM): 72% (2×) and 75% and 80.8% | viability, T/C (compound 10 µM): 10.4% [middle of 4 runs]
